In assay [1] the test system is CWG296 (F470 with a waaP::aacC1 insertion). The assay can be described thus: SDS and novobiocin sensitivity testing (MIC), waaP mutant. The format is cell-based, Escherichia coli. The settings on record: for MIC: Escherichia coli, LB, 37° C., 8 hours; for MIC / sensitivity of the mutant (in words): strain CWG296 (waaP); for increase in the susceptibility: strain CWG296 (waaP) versus F470 parent. As to the method:
(§1) Bacterial Strains and Growth Conditions—E. coli F470 is an R-LPS derivative of an O8:K27 strain (Schmidt, G. et al, 1969), and serves as the prototype for R1 core OS studies. Derivatives of F470 used in this study include CWG296 (F470 with a waaP::aacC1 insertion), CWG297 (F470 with a waaQ::aacC1 insertion), and CWG312 (F470 with a waaY::aacC1 insertion). Bacteria were grown in Luria-Bertani (LB) broth at 37° C. Growth media were supplemented with ampicillin (100 μg/mL), gentamicin (15 μg/mL), or chloramphenicol (30 μg/mL) when necessary.
(§2) Sodium dodecyl sulfate (SDS) and Novobiocin Sensitivity Testing—Two-fold serial dilutions of SDS (200→0.1 mg/mL) and novobiocin (200→1.6 μg/mL) were made in 5 mL volumes of LB. Each series of tubes was point inoculated from an overnight culture of the strain to be tested, and then incubated with shaking at 37° C. Growth was scored as positive if after 8 hours the culture was visibly turbid (i.e. A600>0.2).
Strain CWG296 was derived by insertion of the aacC1 gene into the unique NruI site in the waaP coding region of F470 (FIG. 2B). The resulting mutant was hypersensitive to novobiocin and SDS (Table II), as expected based on results from previous studies (Helander, I. M. et al., 1989; Parker, C. T. et al., 1992).

In assay [2] the test system is CWG312 (F470 with a waaY::aacC1 insertion). Briefly: SDS and novobiocin sensitivity testing (MIC), waaY mutant. The assay is classed as cell-based, Escherichia coli. The conditions noted are these: for MIC / sensitivity compared with F470 (in words): strain CWG312 (waaY) versus F470 parent. As to the method: as §1, §2
To test this possibility, strain CWG312 was derived by insertion of the aacC1 gene into the unique SnaBI site in the waaY coding region of F470 (FIG. 2B). The LPS from the resulting mutant migrated similarly to that of the F470 parent in sodium dodexyl sulphate-polyacrylamine gel electrophoresis (SDS-PAGE) (data not shown), precluding any significant effect of the mutation on core OS extension.

The subject of a further assay is CWG296 (waaP) + pWQ909. The assay can be described thus: SDS and novobiocin sensitivity testing (MIC), complemented waaP mutant. The assay is classed as cell-based, Escherichia coli. The conditions noted are these: for resistance after introduction of multicopy waaP (in words): CWG296 with plasmid pWQ909. As to the method: as §1
Cloning and Expression of waaP for Complementation—Oligonucleotide primers for the amplification of waaP from the F470 chromosome were designed to introduce appropriate restriction sites for cloning. The forward primer (5′-TGTGGATccAAATAGTGGGCACTCA-3′)(SEQ. I.D. No. 7) introduced a BamHI site (underlined) 32 base pairs downstream of the waaP stop codon, and the complementary reverse primer (5′-GGGTGGTCcatATGGTTGAACTTAA-3′)(SEQ. I.D. No. 8) introduced an NdeI site (underlined) overlapping the waaP start codon (bases shown in lower case indicate mismatches between the primer and chromosomal sequences). The coding region for waaP alone was subsequently isolated as a BamHI-NdeI fragment, and cloned behind the arabinose-inducible PBAD promoter of the expression vector pBAD18, to generate plasmid pWQ909. L-arabinose was used at a final concentration of 0.002% to induce expression of WaaP from plasmid pWQ909.
as §2
Strain CWG296 was derived by insertion of the aacC1 gene into the unique NruI site in the waaP coding region of F470 (FIG. 2B). […]

Assay [3] has as its system CWG297 (F470 with a waaQ::aacC1 insertion). The assay can be described thus: SDS and novobiocin sensitivity testing (MIC), waaQ mutant. The assay is classed as cell-based, Escherichia coli. The settings on record: for MIC / sensitivity compared with F470 (in words): strain CWG297 (waaQ) versus F470 parent. As to the method:
as §1, §2
Strain CWG297 was derived by insertion of the aacC1 gene into the unique NruI site in the waaQ coding region of F470 (FIG. 2B).

The subject of another assay is E. coli F470 (parent). The assay can be described thus: SDS and novobiocin sensitivity testing (MIC), parent strain. The format is cell-based. The conditions noted are these: Escherichia coli, LB, 37° C., growth scored after 8 hours, read-out: Minimum inhibitory concentration (MIC) novobiocin. As to the method:
as §1, §2

The mark [4] stands for this setting: Escherichia coli, 8 h, read-out: Minimum inhibitory concentration (MIC) novobiocin.

Converted amounts (≈) assume the structure as drawn. “Also recorded” adds a separate entry of the source. Read-outs that look alike come from different tables or passages of the source.

On to `CCCCCCCCCCCCOS(=O)(=O)[O-].[Na+]` [SDS, Sodium dodecyl sulfate], for which the MIC in assay [1] (read-out: Minimum inhibitory concentration (MIC) SDS) turned out to be 100 µg/mL. In assay [1], the “sensitivity of the mutant (in words)” value is “hypersensitive” and the “increase in the susceptibility” value is recorded as > 1000 fold. In assay [2] (sulfate), the “MIC / sensitivity compared with F470 (in words)” value is on record as “slightly less than for F470; also recorded: minor increase in the sensitivity”. The “resistance after introduction of multicopy waaP (in words)” value with CWG296 (waaP) + pWQ909 is reported as “restored wild-type levels of resistance”. Further, in assay [3] (sulfate), the “MIC / sensitivity compared with F470 (in words)” value is reported as “slightly less than for F470; also recorded: minor increase in the sensitivity”.

In the case of `CO[C@@H]1[C@@H](OC(N)=O)[C@@H](O)[C@H](Oc2ccc3c(O)c(NC(=O)c4ccc(O)c(CC=C(C)C)c4)c(=O)oc3c2C)OC1(C)C` [novobiocin], the MIC in assay [1] (read-out: Minimum inhibitory concentration (MIC) novobiocin) came out at 6.3 µg/mL (≈ 10.3 µM); in assay [2] (setting [4]), 100 µg/mL (≈ 163 µM); in the assay on E. coli F470 (parent), 200 µg/mL (≈ 326 µM); in the assay with CWG296 (waaP) + pWQ909 (Escherichia coli, strain CWG296 (waaP) + pWQ909, LB, 37° C., 8 hours, read-out: Minimum inhibitory concentration (MIC) novobiocin), 100 µg/mL; in assay [3] (setting [4]) it was 100 µg/mL (≈ 163 µM). Moreover, the “sensitivity of the mutant (in words)” value in assay [1] is on record as “hypersensitive”. In addition, in assay [1], the “increase in the susceptibility” value came out at 32 fold. In addition, the “MIC / sensitivity compared with F470 (in words)” value in assay [2] and in assay [3] was “slightly less than for F470; also recorded: minor increase in the sensitivity” each time. The “resistance after introduction of multicopy waaP (in words)” value in the assay with CWG296 (waaP) + pWQ909 is on record as “restored wild-type levels of resistance”.

(Values after patent US6570006B1, “Bacterial gene and method of treating a gram negative bacterial infection” (priority 1998, dated 2003).)
